# Data reported in patent publication US5260298A, “Imidazatriazoloquinazoline compounds and their use” (Novo Nordisk A/S, priority 1991, dated 1993).
# Tested on: benzodiazepine receptors
# Test: in vivo displacement of 3H-flunitrazepam binding from benzodiazepine receptors in a living brain
# Conditions: dose which reduces specific binding of 3H-flunitrazepam to benzodiazepine receptors in a living brain to 50% of the control value
# Text: The pharmaceutical properties of the compounds of the invention can be illustrated by determining their capability for displacing radioactive labelled flunitrazepam from benzodiazepine receptors.
# The displacement activity of the compounds of the invention may be found by determining the ED50 value. The ED50 value represents the dose (mg/kg) of a test substance which causes the specific binding of ^3 H-flunitrazepam to benzodiazepine receptors in a living brain to be reduced to 50% of the control value.
# Such an in vivo test is carried out as described in U.S. Pat. No. 4,774,245.
row,Structure (SMILES),ED50 [mg/kg]
1,"Clc1cccc2c1c1ncnn1c1c(-c3nc(C4CC4)no3)ncn21 [Compound 5, 12-chloro-5-(3-cyclopropyl-1,2,4-oxadiazol-5-yl)-imidazo[1,5-a][1,2,4]triazolo[1,5-c]quinazoline]",0.30
2,"c1ccc2c(c1)c1ncnn1c1c(-c3nc(C4CC4)no3)ncn21 [Compound 3, 5-(3-cyclopropyl-1,2,4-oxadiazol-5-yl)-imidazo[1,5-a]-[1,2,4]triazolo[1,5-c]quinazoline]",0.16
